Read-outs that look alike come from different tables or passages of the source.

Among the data in patent publication US20230265151A1, “GIP/GLP1 CO-AGONIST COMPOUNDS” (priority 2020, published 2023) are EC50 and Emax values, retold here.

What all share (assay type): cell-based
The target of one assay is T1, hGCGR (Homo sapiens, UniProt P47871).
T1 construct: expressed in transfected cells
Put plainly: Functional cAMP formation (HTRF) in HEK-293 clonal cells expressing hGCGR, 0.1% bovine casein, without or with 1.0% human serum albumin. A digest of the protocol:
(§1)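 Readings of the HTRF 665/620 nm ratio, which falls as cAMP rises, were converted to nM cAMP using a standard curve after 30 min peptide exposure at 37° C.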
A general note: cAMP levels reflect the balance of adenylyl cyclase and phosphodiesterase activity.

A further assay concerns the target hGLP-1R (Homo sapiens, UniProt P43220). Description: Functional cAMP formation (HTRF) in HEK-293 clonal cells expressing hGLP-1R, 0.1% bovine casein, without or with 1.0% human serum albumin. Set-up: expressed in transfected cells. The conditions noted are these: for EC50: hGLP-1R EC50, nM (SEM, n), geometric mean. An outline of the steps: as §1
In the next assay the target is T2, hGIPR (Homo sapiens, UniProt P48546).
T2 construct: expressed in transfected cells
T2 sequence (P48546 22-466): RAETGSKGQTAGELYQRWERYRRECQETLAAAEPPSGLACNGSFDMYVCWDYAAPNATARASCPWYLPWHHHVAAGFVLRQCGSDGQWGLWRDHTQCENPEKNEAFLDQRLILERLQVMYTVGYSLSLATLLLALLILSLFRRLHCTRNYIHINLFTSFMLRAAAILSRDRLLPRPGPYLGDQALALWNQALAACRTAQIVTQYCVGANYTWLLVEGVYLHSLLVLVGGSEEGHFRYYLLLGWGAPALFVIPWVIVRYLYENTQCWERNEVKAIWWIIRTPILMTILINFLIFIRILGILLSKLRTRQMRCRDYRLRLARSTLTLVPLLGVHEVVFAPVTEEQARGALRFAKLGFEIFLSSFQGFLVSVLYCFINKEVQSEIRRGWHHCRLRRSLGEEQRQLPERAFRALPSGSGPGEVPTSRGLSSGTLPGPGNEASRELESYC
Description: Functional cAMP formation (HTRF) in HEK-293 clonal cells expressing hGIPR, 0.1% bovine casein, without or with 1.0% human serum albumin. The conditions noted are these: for EC50: hGIPR EC50, nM (SEM, n), cAMP, 0.1% bovine casein (no human serum albumin), geometric mean. An outline of the steps: as §1

The mark [1] stands for this setting: hGCGR EC50, nM (SEM, n), cAMP, incubated at 37° C., 0.1% bovine casein (no human serum albumin), geometric mean.
The mark [2] stands for this setting: HEK293, read-out: hGLP-1R Emax, % ± SEM, percent of maximal response to GLP-1(7-36)NH2, 37° C., 0.1% bovine casein, arithmetic mean.
[3] abbreviates: cAMP, incubated at 37° C., 0.1% bovine casein (no human serum albumin).

hGLP-1R, sequence (P43220 24-463): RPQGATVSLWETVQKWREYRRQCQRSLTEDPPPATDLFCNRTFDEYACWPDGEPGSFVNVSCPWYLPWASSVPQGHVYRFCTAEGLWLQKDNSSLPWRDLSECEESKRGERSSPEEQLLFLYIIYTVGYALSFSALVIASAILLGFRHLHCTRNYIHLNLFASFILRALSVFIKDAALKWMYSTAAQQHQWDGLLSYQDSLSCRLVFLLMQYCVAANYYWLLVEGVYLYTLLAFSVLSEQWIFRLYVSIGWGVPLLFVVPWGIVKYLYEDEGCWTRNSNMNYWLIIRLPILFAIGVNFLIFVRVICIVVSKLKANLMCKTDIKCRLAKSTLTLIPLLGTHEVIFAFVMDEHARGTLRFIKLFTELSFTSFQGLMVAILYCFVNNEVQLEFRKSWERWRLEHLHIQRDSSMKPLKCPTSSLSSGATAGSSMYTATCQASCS
T1 sequence (P47871 26-477): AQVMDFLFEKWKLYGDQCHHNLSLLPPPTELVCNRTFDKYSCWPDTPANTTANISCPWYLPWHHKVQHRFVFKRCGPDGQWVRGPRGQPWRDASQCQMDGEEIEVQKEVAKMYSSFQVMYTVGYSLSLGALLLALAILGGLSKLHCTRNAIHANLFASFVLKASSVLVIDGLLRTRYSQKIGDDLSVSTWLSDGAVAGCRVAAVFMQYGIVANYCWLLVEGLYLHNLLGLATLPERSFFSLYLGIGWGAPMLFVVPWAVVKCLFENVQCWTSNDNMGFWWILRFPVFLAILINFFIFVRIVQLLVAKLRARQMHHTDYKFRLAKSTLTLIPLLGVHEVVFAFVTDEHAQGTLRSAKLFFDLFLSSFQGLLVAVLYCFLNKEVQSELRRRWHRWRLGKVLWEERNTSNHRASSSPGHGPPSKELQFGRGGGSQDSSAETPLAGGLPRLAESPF

Consider `CC[C@H](C)[C@H](NC(=O)[C@H](CC(C)C)NC(=O)[C@](C)(Cc1ccc(O)cc1)NC(=O)[C@@H](CCC(=O)O)NC(=O)[C@@H](NC(=O)[C@](C)(Cc1ccccc1)NC(=O)[C@H](CCC(=O)O)NC(=O)C(C)(C)NC(=O)[C@H](CCC(N)=O)NC(=O)[C@H](C)NC(=O)[C@H](CCCCNC(=O)COCCOCCNC(=O)COCCOCCNC(=O)CC[C@H](NC(=O)CCCCCCCCCCCCC(=O)O)C(=O)O)NC(=O)[C@H](CCCN)NC(=O)[C@H](CC(=O)O)NC(=O)[C@H](CC(C)C)NC(=O)[C@](C)(CC(C)C)NC(=O)[C@@H](NC(=O)C(C)(C)NC(=O)[C@@H](NC(=O)[C@H](CC(=O)O)NC(=O)[C@H](CO)NC(=O)[C@@H](NC(=O)[C@](C)(Cc1ccccc1F)NC(=O)[C@@H](NC(=O)CNC(=O)[C@H](CCC(=O)O)NC(=O)C(C)(C)NC(=O)[C@@H](N)Cc1ccc(O)cc1)[C@@H](C)O)[C@@H](C)O)C(C)C)[C@@H](C)CC)[C@@H](C)CC)C(=O)N[C@@H](CCC(=O)O)C(=O)NCC(=O)NCC(=O)N[C@@H](CCCCNC(=O)COCCOCCNC(=O)COCCOCCNC(=O)CC[C@H](NC(=O)CCCCCCCCCCCCC(=O)O)C(=O)O)C(=O)N[C@@H](CO)C(=O)N[C@@H](CO)C(=O)NCC(=O)N[C@@H](C)C(=O)N1CCC[C@H]1C(=O)N1CCC[C@H]1C(=O)N1CCC[C@H]1C(=O)N[C@@H](CO)C(N)=O` [Example 93], for which the EC50 (commonly the concentration at which the effect is half-maximal) at hGCGR (0.1% bovine casein and 1.0% human serum albumin, 37° C., geometric mean, read-out: hGCGR EC50, nM (SEM, n)) was above 9950 nM; on hGCGR (cAMP, incubated at 37° C., 0.1% bovine casein (no human serum albumin), geometric mean, read-out: hGCGR EC50, nM (SEM, n)) it was above 9950 nM. For the same compound, the Emax (usually the size of the effect at its maximum, as opposed to the concentration needed) stood at 90.2% at hGLP-1R (HEK293, 0.1% bovine casein and 1.0% human serum albumin, 37° C., percent of maximal response to GLP-1(7-36)NH2, read-out: hGLP-1R Emax, % ± SEM); 92% at hGIPR (HEK293, 0.1% bovine casein and 1.0% human serum albumin, 37° C., percent of maximal response to GIP(1-42)NH2, read-out: hGIPR Emax, % ± SEM); 99.4 ± 6.93% at hGIPR (HEK293, percent of maximal response to GIP(1-42)NH2, 37° C., 0.1% bovine casein, arithmetic mean, read-out: hGIPR Emax, % ± SEM).
Turning to `CC[C@H](C)[C@H](NC(=O)[C@H](CC(C)C)NC(=O)[C@](C)(Cc1ccc(O)cc1)NC(=O)[C@@H](CCC(=O)O)NC(=O)[C@@H](NC(=O)[C@H](Cc1ccccc1)NC(=O)[C@H](CCC(=O)O)NC(=O)C(C)(C)NC(=O)[C@H](CCC(N)=O)NC(=O)[C@H](C)NC(=O)[C@H](CCCCNC(=O)COCCOCCNC(=O)COCCOCCNC(=O)CCCCCCCCCOc1ccc(C(=O)O)cc1)NC(=O)[C@H](CCCN)NC(=O)[C@H](CC(=O)O)NC(=O)[C@H](CC(C)C)NC(=O)[C@](C)(CC(C)C)NC(=O)[C@@H](NC(=O)C(C)(C)NC(=O)[C@@H](NC(=O)[C@H](CC(=O)O)NC(=O)[C@H](CO)NC(=O)[C@@H](NC(=O)[C@](C)(Cc1ccccc1F)NC(=O)[C@@H](NC(=O)CNC(=O)[C@H](CCC(=O)O)NC(=O)C(C)(C)NC(=O)[C@@H](N)Cc1ccc(O)cc1)[C@@H](C)O)[C@@H](C)O)C(C)C)[C@@H](C)CC)[C@@H](C)CC)C(=O)N[C@@H](CCCCNC(=O)COCCOCCNC(=O)COCCOCCNC(=O)CCCCCCCCCOc1ccc(C(=O)O)cc1)C(=O)NCC(=O)NCC(=O)N1CCC[C@H]1C(=O)N[C@@H](CO)C(=O)N[C@@H](CO)C(=O)NCC(=O)N[C@@H](C)C(=O)N1CCC[C@H]1C(=O)N1CCC[C@H]1C(=O)N1CCC[C@H]1C(=O)N[C@@H](CO)C(N)=O` [Example 397], the EC50 at hGCGR (hGCGR EC50, nM (SEM, n), cAMP, 37° C., 0.1% bovine casein (no human serum albumin), geometric mean) is above 9950 nM; at hGCGR (hGCGR EC50, nM (SEM, n), cAMP, 37° C., 0.1% bovine casein and 1.0% human serum albumin, geometric mean (SEM, n)) it was above 9950 nM; on hGLP-1R (cAMP, 37° C., 0.1% bovine casein (no human serum albumin)), 0.166 nM; on hGIPR (37° C.), 0.0293 nM. The Emax is 95.8% on hGLP-1R (HEK293, read-out: hGLP-1R Emax, % ± SEM, cAMP, 37° C., 0.1% bovine casein, percent of maximal response to GLP-1(7-36)NH2, arithmetic mean); 84.5% on hGIPR (HEK293, read-out: hGIPR Emax, % ± SEM, cAMP, 37° C., 0.1% bovine casein and 1.0% human serum albumin, percent of maximal response to GIP(1-42)NH2); 94.6% at hGIPR (HEK293, read-out: hGIPR Emax, % ± SEM, cAMP, 37° C., 0.1% bovine casein, percent of maximal response to GIP(1-42)NH2, arithmetic mean).
As for `CC[C@H](C)[C@H](NC(=O)[C@H](CC(C)C)NC(=O)[C@](C)(Cc1ccc(O)cc1)NC(=O)[C@H](CCCCNC(=O)COCCOCCNC(=O)COCCOCCNC(=O)CC[C@H](NC(=O)CCCCCCCCCCCCC(=O)O)C(=O)O)NC(=O)[C@@H](NC(=O)[C@H](Cc1ccccc1)NC(=O)[C@H](CCC(=O)O)NC(=O)C(C)(C)NC(=O)[C@H](CCC(N)=O)NC(=O)[C@H](C)NC(=O)[C@H](CCCCNC(=O)COCCOCCNC(=O)COCCOCCNC(=O)CC[C@H](NC(=O)CCCCCCCCCCCCC(=O)O)C(=O)O)NC(=O)[C@H](CCCN)NC(=O)[C@H](CC(=O)O)NC(=O)[C@H](CC(C)C)NC(=O)[C@](C)(CC(C)C)NC(=O)[C@@H](NC(=O)C(C)(C)NC(=O)[C@@H](NC(=O)[C@H](CC(=O)O)NC(=O)[C@H](CO)NC(=O)[C@@H](NC(=O)[C@](C)(Cc1ccccc1F)NC(=O)[C@@H](NC(=O)CNC(=O)[C@H](CCC(=O)O)NC(=O)C(C)(C)NC(=O)[C@@H](N)Cc1ccc(O)cc1)[C@@H](C)O)[C@@H](C)O)C(C)C)[C@@H](C)CC)[C@@H](C)CC)C(=O)N[C@@H](CCC(=O)O)C(=O)NCC(=O)NCC(=O)N1CCC[C@H]1C(=O)N[C@@H](CO)C(=O)N[C@@H](CO)C(=O)NCC(=O)N[C@@H](C)C(=O)N1CCC[C@H]1C(=O)N1CCC[C@H]1C(=O)N1CCC[C@H]1C(=O)N[C@@H](CO)C(N)=O` [Example 115], the results for the EC50 at hGCGR (setting [1]), at hGLP-1R (setting [3]) and at hGIPR (incubated at 37° C.) were above 9950 nM, 0.16 nM and 0.103 nM, respectively. Also, the Emax on hGLP-1R (setting [2]) worked out at 91.6%.
As to `CC[C@H](C)[C@H](NC(=O)[C@H](CC(C)C)NC(=O)[C@](C)(Cc1ccc(O)cc1)NC(=O)[C@@H](CCC(=O)O)NC(=O)[C@@H](NC(=O)[C@H](Cc1ccccc1)NC(=O)[C@H](CCCCNC(=O)COCCOCCNC(=O)COCCOCCNC(=O)CC[C@H](NC(=O)CCCCCCCCCOc1ccc(C(=O)O)cc1)C(=O)O)NC(=O)C(C)(C)NC(=O)[C@H](CCC(N)=O)NC(=O)[C@H](C)NC(=O)[C@H](CCCCNC(=O)COCCOCCNC(=O)COCCOCCNC(=O)CC[C@H](NC(=O)CCCCCCCCCOc1ccc(C(=O)O)cc1)C(=O)O)NC(=O)[C@H](CCCN)NC(=O)[C@H](CC(=O)O)NC(=O)[C@H](CC(C)C)NC(=O)[C@](C)(CC(C)C)NC(=O)[C@@H](NC(=O)C(C)(C)NC(=O)[C@H](Cc1ccc(O)cc1)NC(=O)[C@H](CC(=O)O)NC(=O)[C@H](CO)NC(=O)[C@@H](NC(=O)[C@](C)(Cc1ccccc1F)NC(=O)[C@@H](NC(=O)CNC(=O)[C@H](CCC(=O)O)NC(=O)C(C)(C)NC(=O)[C@@H](N)Cc1ccc(O)cc1)[C@@H](C)O)[C@@H](C)O)[C@@H](C)CC)[C@@H](C)CC)C(=O)N[C@@H](CCC(=O)O)C(=O)NCC(=O)NCC(=O)N1CCC[C@H]1C(=O)N[C@@H](CO)C(=O)N[C@@H](CO)C(=O)NCC(=O)N[C@@H](C)C(=O)N1CCC[C@H]1C(=O)N1CCC[C@H]1C(=O)N1CCC[C@H]1C(=O)N[C@@H](CO)C(N)=O` [Example 236], the EC50 on hGCGR (hGCGR EC50, nM (SEM, n), 0.1% bovine casein and 1.0% human serum albumin, 37° C., geometric mean) was above 9950 nM; on hGCGR (setting [1]), above 9950 nM; at hGLP-1R (0.1% bovine casein and 1.0% human serum albumin, 37° C.), 32.6 nM; on hGLP-1R (setting [3]) it was 0.336 nM; at hGIPR (incubated at 37° C.) it was 0.0154 nM. Further, the Emax was found to be 125% at hGLP-1R (HEK293, read-out: hGLP-1R Emax, % ± SEM, 0.1% bovine casein and 1.0% human serum albumin, 37° C., percent of maximal response to GLP-1(7-36)NH2); 96.5% on hGLP-1R (setting [2]); 80.5% at hGIPR (HEK293, read-out: hGIPR Emax, % ± SEM, 0.1% bovine casein and 1.0% human serum albumin, 37° C., percent of maximal response to GIP(1-42)NH2).
